Here are results for 16 molecules from ChEMBL document CHEMBL4828721, “Substituted dienes prepared from betulinic acid - Synthesis, cytotoxicity, mechanism of action, and pharmacological parameters” (Eur J Med Chem, 2021).

In one experiment the test system is CCRF-CEM. Description: Cytotoxicity against human CCRF-CEM cells assessed as reduction in cell viability measured after 72 hrs by MTS assay. It counts as functional, cell-based. A general note: Tetrazolium dyes change colour on reduction, which living cells bring about.
Another experiment has as its system CEM-DNR. Description: Cytotoxicity against daunorubicin resistant human CEM-DNR cells assessed as reduction in cell viability measured after 72 hrs by MTS assay. It counts as functional, cell-based.
The next experiment deals with HCT-116. Description: Cytotoxicity against human HCT-116 cells assessed as reduction in cell viability measured after 72 hrs by MTS assay. It counts as functional, cell-based. The note with it: HCT-116, 72 h.
Experiment [1] can be described thus: Cytotoxicity against human HCT116 p53-null cells assessed as reduction in cell viability measured after 72 hrs by MTS assay. It counts as functional, cell-based.
The test system of another experiment is K562. Description: Cytotoxicity against human K562 cells assessed as reduction in cell viability measured after 72 hrs by MTS assay. It counts as functional, cell-based. The note with it: K562, 72 h.
Experiment [2] can be described thus: Cytotoxicity against paclitaxel resistant human K562-Tax cells assessed as reduction in cell viability measured after 72 hrs by MTS assay. It counts as functional, cell-based.
Another experiment concerns A549. Description: Cytotoxicity against human A549 cells assessed as reduction in cell viability measured after 72 hrs by MTS assay. The following applies: A549, 72 h. It counts as functional, cell-based.
The subject of the next experiment is U2OS. Description: Cytotoxicity against human U2OS cells assessed as reduction in cell viability measured after 72 hrs by MTS assay. It counts as functional, cell-based.
The next experiment concerns BJ. Description: Cytotoxicity against human BJ cells assessed as reduction in cell viability measured after 72 hrs by MTS assay. It counts as cell-based.
For another experiment, the system named is MRC5. Description: Cytotoxicity against human MRC5 cells assessed as reduction in cell viability measured after 72 hrs by MTS assay. It counts as cell-based. The note with it: MRC5, 72 h.

The IC50 is the concentration needed to halve the response being measured.

Each structure is given as a SMILES string.

With `C=C(/C=C/c1cccnc1)[C@@H]1CC[C@]2(C(=O)O)CC[C@]3(C)[C@H](CC[C@@H]4[C@@]5(C)CC[C@H](O)C(C)(C)[C@@H]5CC[C@]43C)[C@@H]12`, the IC50 in the experiment on CCRF-CEM was 11.3 µM; in the experiment on CEM-DNR, 17.4 µM; in the experiment on HCT-116, 30.9 µM; in [1], 32.8 µM; in the experiment on K562, greater than 50 µM; in experiment [2], 14.2 µM. The half-inhibitory concentration (IC50) is 26.2 µM with A549, 30.9 µM in the experiment with U2OS, greater than 50 µM with BJ and greater than 50 µM in the experiment on MRC5.
With `C=C(/C=C/c1ccc(OC)cc1)[C@@H]1CC[C@]2(C(=O)O)CC[C@]3(C)[C@H](CC[C@@H]4[C@@]5(C)CC[C@H](O)C(C)(C)[C@@H]5CC[C@]43C)[C@@H]12`, the 50% inhibitory concentration (IC50) was 20.9 µM in the experiment on CCRF-CEM; greater than 50 µM with CEM-DNR; 42.4 µM in the experiment with HCT-116; 48.9 µM in [1]; greater than 50 µM in the experiment on K562; 48.6 µM in experiment [2]. Besides, the IC50 was greater than 50 µM in the experiment with A549, 48.6 µM in the experiment on U2OS, greater than 50 µM in the experiment with BJ and greater than 50 µM in the experiment on MRC5.
For `C=C(/C=C/c1cccc(C(=O)O)c1)[C@@H]1CC[C@]2(C(=O)O)CC[C@]3(C)[C@H](CC[C@@H]4[C@@]5(C)CC[C@H](O)C(C)(C)[C@@H]5CC[C@]43C)[C@@H]12`, the IC50 with CCRF-CEM was 20.1 µM; with CEM-DNR it was 33.9 µM; in the experiment with HCT-116, 43.4 µM; in experiment [1], 43.1 µM; in the experiment with K562, greater than 50 µM; in experiment [2], 36.7 µM. Further, the concentration for half-maximal inhibition (IC50) in the experiment on A549, in the experiment with U2OS, in the experiment with BJ and in the experiment on MRC5 was greater than 50 µM in each case.
With `C=C(/C=C/c1ccccc1Cl)[C@@H]1CC[C@]2(C(=O)O)CC[C@]3(C)[C@H](CC[C@@H]4[C@@]5(C)CC[C@H](O)C(C)(C)[C@@H]5CC[C@]43C)[C@@H]12`, the IC50 came out at 18.7 µM in the experiment on CCRF-CEM; 42.1 µM in the experiment with CEM-DNR; 26.6 µM in the experiment with HCT-116; 24.8 µM in [1]; 23.9 µM with K562; 39.3 µM in experiment [2]. Further, the 50% inhibitory concentration (IC50) in the experiment with A549 is 29.4 µM; with U2OS, 28.1 µM; in the experiment on BJ, 42.3 µM; with MRC5 it was 32.6 µM.
Take `C=C(/C=C/c1ccc(C(C)(C)C)cc1)[C@@H]1CC[C@]2(C(=O)O)CC[C@]3(C)[C@H](CC[C@@H]4[C@@]5(C)CC[C@H](O)C(C)(C)[C@@H]5CC[C@]43C)[C@@H]12`: the concentration for half-maximal inhibition (IC50) with CCRF-CEM is 45.6 µM; in the experiment with CEM-DNR, greater than 50 µM; in the experiment on HCT-116 it was greater than 50 µM; in [1] it was greater than 50 µM; with K562 it was greater than 50 µM; in experiment [2], greater than 50 µM. Besides, the concentration for half-maximal inhibition (IC50) in the experiment with A549 is greater than 50 µM; in the experiment with U2OS, 45.1 µM; with BJ it was greater than 50 µM; with MRC5 it was greater than 50 µM.
With `C=C(/C=C/c1ccc(I)cc1)[C@@H]1CC[C@]2(C(=O)O)CC[C@]3(C)[C@H](CC[C@@H]4[C@@]5(C)CC[C@H](O)C(C)(C)[C@@H]5CC[C@]43C)[C@@H]12`, the half-inhibitory concentration (IC50) with CCRF-CEM is 16 µM; in the experiment on CEM-DNR, greater than 50 µM; with HCT-116, 30.7 µM; in experiment [1], 33.3 µM; in the experiment on K562, greater than 50 µM; in [2], greater than 50 µM. For the same molecule, the IC50 in the experiment on A549 was greater than 50 µM; in the experiment on U2OS it was 32.2 µM; with BJ it was greater than 50 µM; in the experiment with MRC5, 41.2 µM.
On to `C=C(/C=C/c1ccc(C(F)(F)F)cc1)[C@@H]1CC[C@]2(C(=O)O)CC[C@]3(C)[C@H](CC[C@@H]4[C@@]5(C)CC[C@H](O)C(C)(C)[C@@H]5CC[C@]43C)[C@@H]12`, for which the IC50 with CCRF-CEM is 21.5 µM; in the experiment with CEM-DNR it was 40.9 µM; with HCT-116, 40.9 µM; in experiment [1] it was 31.9 µM; in the experiment on K562, 40.5 µM; in experiment [2], 45.6 µM. For the same molecule, the IC50 with A549 turned out to be 41.4 µM; with U2OS it was 28.2 µM; with BJ, 49.5 µM; in the experiment with MRC5 it was 42.4 µM.
On to `C=C(/C=C/c1ccc(C)cc1)[C@@H]1CC[C@]2(C(=O)O)CC[C@]3(C)[C@H](CC[C@@H]4[C@@]5(C)CC[C@H](O)C(C)(C)[C@@H]5CC[C@]43C)[C@@H]12`, for which the 50% inhibitory concentration (IC50) in the experiment with CCRF-CEM is 5.9 µM; in the experiment on CEM-DNR it was 26.1 µM; in the experiment on HCT-116 it was 21.4 µM; in experiment [1] it was 18.2 µM; with K562 it was greater than 50 µM; in experiment [2] it was 26.3 µM. In addition, the 50% inhibitory concentration (IC50) in the experiment with A549, with U2OS, in the experiment on BJ and with MRC5 was greater than 50 µM each time.
`C=C(/C=C/c1ccncc1)[C@@H]1CC[C@]2(C(=O)O)CC[C@]3(C)[C@H](CC[C@@H]4[C@@]5(C)CC[C@H](O)C(C)(C)[C@@H]5CC[C@]43C)[C@@H]12`: the IC50 in the experiment on CCRF-CEM came out at 5.9 µM; in the experiment with CEM-DNR, 20.5 µM; in the experiment with HCT-116, 35 µM; in [1] it was 30.6 µM; in the experiment on K562 it was 43.4 µM; in [2], 20.6 µM. In addition, the 50% inhibitory concentration (IC50) with A549 is 46 µM; in the experiment on U2OS, 29.7 µM; in the experiment on BJ it was greater than 50 µM; with MRC5, greater than 50 µM.
With `C=C(/C=C/c1ccccc1C)[C@@H]1CC[C@]2(C(=O)O)CC[C@]3(C)[C@H](CC[C@@H]4[C@@]5(C)CC[C@H](O)C(C)(C)[C@@H]5CC[C@]43C)[C@@H]12`, the IC50 is 19.1 µM in the experiment on CCRF-CEM; 22.8 µM with CEM-DNR; 29.7 µM in the experiment on HCT-116; 25.9 µM in experiment [1]; 28.1 µM in the experiment with K562; 25.9 µM in [2]. The half-inhibitory concentration (IC50) with A549 was 26.8 µM; in the experiment with U2OS, 28 µM; in the experiment with BJ, 33 µM; in the experiment with MRC5, 31.5 µM.
`C=C(/C=C/c1c(F)c(F)c(F)c(F)c1F)[C@@H]1CC[C@]2(C(=O)O)CC[C@]3(C)[C@H](CC[C@@H]4[C@@]5(C)CC[C@H](O)C(C)(C)[C@@H]5CC[C@]43C)[C@@H]12`: the half-inhibitory concentration (IC50) in the experiment on CCRF-CEM was 22.1 µM; with CEM-DNR, greater than 50 µM; with HCT-116 it was 32.2 µM; in experiment [1] it was 36.3 µM; with K562, 29.8 µM; in [2] it was greater than 50 µM. Further, the half-maximal inhibitory concentration (IC50) in the experiment on A549 is 32.2 µM; with U2OS, 30.2 µM; in the experiment with BJ, greater than 50 µM; in the experiment on MRC5 it was 43.2 µM.
As to `C=C(/C=C/c1cccc(C(F)(F)F)c1)[C@@H]1CC[C@]2(C(=O)O)CC[C@]3(C)[C@H](CC[C@@H]4[C@@]5(C)CC[C@H](O)C(C)(C)[C@@H]5CC[C@]43C)[C@@H]12`, the IC50 was 8 µM in the experiment on CCRF-CEM; 28.1 µM in the experiment with CEM-DNR; 23.1 µM in the experiment with HCT-116; 24.8 µM in [1]; 26.5 µM with K562; 25.1 µM in experiment [2]. The IC50 in the experiment on A549 is 35.1 µM; in the experiment on U2OS, 24.6 µM; in the experiment on BJ, greater than 50 µM; in the experiment with MRC5, 42.9 µM.
In the case of `C=C(/C=C/c1ccc(F)cc1)[C@@H]1CC[C@]2(C(=O)O)CC[C@]3(C)[C@H](CC[C@@H]4[C@@]5(C)CC[C@H](O)C(C)(C)[C@@H]5CC[C@]43C)[C@@H]12`, the IC50 stood at 4.9 µM with CCRF-CEM; 31.4 µM in the experiment on CEM-DNR; 35.4 µM in the experiment on HCT-116; 41 µM in experiment [1]; 36.2 µM with K562; 29.8 µM in experiment [2]. Also, the half-maximal inhibitory concentration (IC50) in the experiment on A549 is 40.6 µM; with U2OS, 23.9 µM; with BJ, 44.6 µM; with MRC5, 38.3 µM.
In the case of `C=C(/C=C/c1ccccc1I)[C@@H]1CC[C@]2(C(=O)O)CC[C@]3(C)[C@H](CC[C@@H]4[C@@]5(C)CC[C@H](O)C(C)(C)[C@@H]5CC[C@]43C)[C@@H]12`, the IC50 with CCRF-CEM is 20.6 µM; in the experiment with CEM-DNR it was greater than 50 µM; in the experiment with HCT-116, 29.6 µM; in [1] it was 29.5 µM; with K562, 25.1 µM; in [2], greater than 50 µM. In addition, the IC50 is 29.7 µM in the experiment on A549, 28.5 µM in the experiment on U2OS, greater than 50 µM with BJ and 29.5 µM in the experiment with MRC5.
Regarding `C=C(/C=C/C1CCCCC1)[C@@H]1CC[C@]2(C(=O)O)CC[C@]3(C)[C@H](CC[C@@H]4[C@@]5(C)CC[C@H](O)C(C)(C)[C@@H]5CC[C@]43C)[C@@H]12`, the IC50 with CCRF-CEM is 8 µM; in the experiment with CEM-DNR it was 45.7 µM; in the experiment on HCT-116 it was 15.2 µM; in experiment [1] it was greater than 50 µM; with K562, greater than 50 µM; in experiment [2], 43.6 µM. The IC50 in the experiment with A549, in the experiment on U2OS, in the experiment with BJ and with MRC5 was greater than 50 µM each time.
Consider `C=C(/C=C/c1cccc(C)c1)[C@@H]1CC[C@]2(C(=O)O)CC[C@]3(C)[C@H](CC[C@@H]4[C@@]5(C)CC[C@H](O)C(C)(C)[C@@H]5CC[C@]43C)[C@@H]12`, for which the IC50 stood at 9.5 µM in the experiment with CCRF-CEM; 21.4 µM in the experiment on CEM-DNR; 24.7 µM in the experiment on HCT-116; 22.3 µM in experiment [1]; 24.9 µM in the experiment on K562; 23.6 µM in experiment [2]. Besides, the half-inhibitory concentration (IC50) is 36.5 µM with A549, 18.2 µM with U2OS, greater than 50 µM in the experiment on BJ and 42.2 µM with MRC5.
